# Source: patent publication US8691755B2, “Pegylated C-peptide” (Cebix AB, priority 2010, dated 2014)
# Read-outs that look alike come from different tables or passages of the source.
# Key:
# [1] = Repeated-dose GLP toxicology studies with unmodified C-peptide, continuous s.c. infusion; assay type: in vivo, Cynomolgus monkey; conditions: for No Observed Effect Level: continuous s.c. infusion; for level at time molar: cynomolgus monkey, plasma, sc, read-out: C-peptide Css
# Protocol: (§1) In the five GLP toxicology studies conducted with non-PEGylated C-peptide for up to 4 weeks in rats and 13 weeks in Cynomolgus monkeys, the C-peptide was continuously infused s.c. via implanted osmotic pumps. The plasma concentration of C-peptide was measured periodically throughout the studies and a steady-state concentration (Css) over the duration of exposure has been determined for each study as shown in Table E6.
# [2] = as above; assay type: in vivo, Sprague Dawley rat; conditions: for No Observed Effect Level: continuous s.c. infusion; for level at time molar: Sprague Dawley, rat, plasma, sc, read-out: C-peptide Css
# Protocol: as §1
# [3] = PK of unmodified C-peptide in beagle dogs, single S.C. dose (first PK study)
# Protocol: A pharmacokinetic (PK) study was conducted to determine the C-peptide PK profile with unmodified C-peptide in beagle dogs.
# Plasma samples were obtained after centrifugation of the blood (3,000 rpm for 10 minutes) and stored at −80° C. until analysis. […] Results were expressed as C-peptide concentrations. For the PK analysis, the below quantitation level (BQL) was treated as zero and nominal time points were used for all calculations. PK parameters were determined by standard model independent methods based on the individual plasma concentration-time data for each animal using model 200 in WinNonlin Professional 5.2.1 (Pharsight Corp., Mountain View, Calif.).
# [4] = both, beagle, dog, plasma, sc, 0.5 mg/kg
smiles,measurement,setting,value
CC(C)C[C@H](NC(=O)[C@H](C)NC(=O)[C@H](CC(C)C)NC(=O)[C@@H]1CCCN1C(=O)[C@H](CCC(N)=O)NC(=O)[C@H](CC(C)C)NC(=O)[C@H](CO)NC(=O)CNC(=O)[C@H](C)NC(=O)CNC(=O)[C@@H]1CCCN1C(=O)CNC(=O)CNC(=O)CNC(=O)[C@H](CC(C)C)NC(=O)[C@H](CCC(=O)O)NC(=O)[C@@H](NC(=O)[C@H](CCC(N)=O)NC(=O)CNC(=O)[C@@H](NC(=O)[C@H](CCC(N)=O)NC(=O)[C@H](CC(C)C)NC(=O)[C@H](CC(=O)O)NC(=O)[C@H](CCC(=O)O)NC(=O)[C@H](C)NC(=O)[C@@H](N)CCC(=O)O)C(C)C)C(C)C)C(=O)N[C@@H](CCC(=O)O)C(=O)NCC(=O)N[C@@H](CO)C(=O)N[C@@H](CC(C)C)C(=O)N[C@@H](CCC(N)=O)C(=O)O [unmodified C-peptide],No Observed Effect Level,[1]; 13 weeks,3.6 mg/kg/day
same,No Observed Effect Level,[1]; 14 days,2 mg/kg/day
same,level at time molar,"[1]; 13 weeks at NOEL 3.6 mg/kg/day, mean of days 2, 28, 37/38, 56, 91",0.04 µM
same,level at time molar,"[1]; 14 days at NOEL 2 mg/kg/day, mean of days 2, 10, 14",0.084 µM
same,No Observed Effect Level,[2]; 4 weeks,0.5 mg/kg/day
same,No Observed Effect Level,[2]; 14 days,2 mg/kg/day
same,level at time molar,"[2]; 0.5 mg/kg/day, 4 weeks at NOEL 0.5 mg/kg/day, mean of days 2, 14, 28",0.0042 µM
same,level at time molar,"[2]; 2 mg/kg/day, 14 days at NOEL 2 mg/kg/day, mean of days 2, 10, 14",0.027 µM
same,AUC(0-t),[3]; [4],1.86 µg·h/mL
same,Cmax,[3]; [4],0.757 µg/mL
same,circulating levels of C-peptide below quantitation level (BQL),[3]; single S.C. dose 0.5 mg/kg,BQL within half a day
same,tolerability (clinical abnormalities),[3]; single S.C. dose 0.5 mg/kg,well tolerated
